One data set has as its system glioma cells. To be noted: cited from earlier work.
For data set [1] the following is noted: cited from earlier work.
For the next data set, the system named is one or more cancers. To be noted: cyclophosphamide only.

Source text for one or more cancers: One or more patients are identified who have one or more cancers selected from lung carcinoma, prostate cancer, gliaoblastoma multiform, hormone refractory prostate cancer, solid tumor malignancies such as colon carcinoma, non-small cell lung cancer (NSCLC), anaplastic astrocytoma, bladder carcinoma, sarcoma, ovarian carcinoma, rectal hemangiopericytoma, pancreatic carcinoma, advanced cancer, cancer of large bowel, stomach, pancreas, ovaries, melanoma pancreatic cancer, colon cancer, and bladder cancer.
The one or more patients are administered a formulation comprising cyclophosphamide only. […] On the day of the next administration and prior to the administration, as assessment of the outcome of treatment until that point is conducted and compared to all previous assessments.
Patients are then administered a combination of cyclophosphamide and quercetin and SPB. […] An assessment of the outcome of treatment is periodically made.

Take `O=c1c(O)c(-c2ccc(O)c(O)c2)oc2cc(O)cc(O)c12` [Quercetin, quercetin]: the “angiogenesis in glioma cells” value with glioma cells is reported as “suppression of angiogenesis”. The water solubility result in data set [1] is recorded as “not water soluble”. Consider `O=P1(N(CCCl)CCCl)NCCCO1` (stereo not drawn) [cyclophosphamide], for which the “response of the cancers following the initial response period” value in the data set on one or more cancers is “become resistant”.

The values are drawn from patent publication US11890292B2, “Compositions, methods, systems and/or kits for preventing and/or treating neoplasms” (Research Cancer Institute of America, priority 2017, dated 2024).
